Laboratory results as given in ChEMBL document CHEMBL4706703, “Novel 3-benzylidene/benzylphthalide Mannich base derivatives as potential multifunctional agents for the treatment of Alzheimer's disease” (Bioorg Med Chem, 2021).
pIC50, pKi: −log10 of the molar value. Activity calls are given as the source filed them. The rule behind the calls is not given here.

Columns and labels:
Plasma [1] = test: Antiplatelet activity in rat platelet-rich plasma assessed as inhibition of ADP-induced platelet aggregation preincubated for 30 mins followed by ADP addition measured within 5 mins by aggregometry; format: functional
Mus musculus [2] = test: Memory improvement effect in Kunming mouse model of scopolamine-induced memory impairment assessed as reduction in number of errors at 5 mg/kg, ig administered once daily for 7 days followed by scopolamine challenge 30 mins prior to training on day 6 measured on day 7 by passive avoidance test; format: functional, organism-based; details: time 7.0 day
Mus musculus [3] = test: Reversal of scopolamine-induced memory impairment in Kunming mouse assessed as increase in ACh level in cerebral cortex at 5 mg/kg, ig administered once daily for 7 days followed by scopolamine challenge 30 mins prior to training trail on day 6 measured on day 7; format: functional, organism-based; details: time 7.0 day
Mus musculus [4] = test: Memory improvement effect in Kunming mouse model of scopolamine-induced memory impairment assessed as increase in latency time at 5 mg/kg, ig administered once daily for 7 days followed by scopolamine challenge 30 mins prior to training on day 6 measured on day 7 by passive avoidance test; format: functional, organism-based; details: time 7.0 day
[5] = target: Amyloid-beta precursor protein (Homo sapiens) (UniProt P05067); test: Inhibition of amyloid beta (1 to 42) (unknown origin) self aggregation at 25 uM after 24 hrs by thioflavin-T fluorescence method relative to control
[6] = target: butyrylcholinesterase (BuChE) (Rattus norvegicus, UniProt Q9JKC1); test: Inhibition of rat serum BuChE at 10 uM using butyrylthiocholine iodide as substrate incubated for 15 mins by Ellman's method relative to control; format: cell-free; details: probe butyrylthiocholine iodide
[7] = Antioxidant activity assessed as trolox equivalent of AAPH radical scavenging activity measured every min for 90 mins by ORAC-FL assay; format: functional
MAO-A = target: T1, MAO-A (Homo sapiens, UniProt P21397); test: Inhibition of recombinant human MAOA at 10 uM using kynuramine as substrate preincubated for 30 mins followed by substrate addition and measured after 30 mins by fluorescence assay relative to control; details: probe kynuramine, time 60 min
T1 sequence (P21397 whole entry): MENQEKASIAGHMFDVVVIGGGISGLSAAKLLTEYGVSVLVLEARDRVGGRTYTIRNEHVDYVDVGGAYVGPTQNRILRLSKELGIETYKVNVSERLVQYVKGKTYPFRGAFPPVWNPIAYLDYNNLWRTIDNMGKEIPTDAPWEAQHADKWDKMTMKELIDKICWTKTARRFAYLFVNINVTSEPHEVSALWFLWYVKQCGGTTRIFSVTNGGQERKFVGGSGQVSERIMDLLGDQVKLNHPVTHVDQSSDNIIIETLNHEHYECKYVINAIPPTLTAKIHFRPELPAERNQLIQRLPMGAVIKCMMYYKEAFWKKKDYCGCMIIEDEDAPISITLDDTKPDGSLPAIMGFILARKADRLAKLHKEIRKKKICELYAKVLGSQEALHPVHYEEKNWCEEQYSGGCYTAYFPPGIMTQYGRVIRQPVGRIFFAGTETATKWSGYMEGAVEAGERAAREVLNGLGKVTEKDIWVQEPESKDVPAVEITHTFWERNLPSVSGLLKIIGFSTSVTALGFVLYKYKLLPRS

Plasma [8] = test: Antiplatelet activity in rat platelet-rich plasma assessed as inhibition of ADP-induced platelet aggregation at 33 uM preincubated for 30 mins followed by ADP addition measured within 5 mins by aggregometry relative to control; format: functional; details: time 30-35 min
Acetylcholinesterase [9] = target: T2, Acetylcholinesterase (Homo sapiens, UniProt P22303); test: Inhibition of human AChE using acetylthiocholine iodide as substrate incubated for 15 mins by Ellman's method
Acetylcholinesterase [10] = target: T3, Acetylcholinesterase (Electrophorus electricus, UniProt O42275); test: Inhibition of Electrophorus electricus AChE using acetylthiocholine iodide as substrate incubated for 15 mins by Ellman's method
[11] = target: T4, Amine oxidase [flavin-containing] B (Homo sapiens, UniProt P27338); test: Inhibition of recombinant human MAOB at 10 uM using kynuramine as substrate preincubated for 30 mins followed by substrate addition and measured after 30 mins by fluorescence assay relative to control; details: 0.5 h
T4 sequence (P27338 whole entry): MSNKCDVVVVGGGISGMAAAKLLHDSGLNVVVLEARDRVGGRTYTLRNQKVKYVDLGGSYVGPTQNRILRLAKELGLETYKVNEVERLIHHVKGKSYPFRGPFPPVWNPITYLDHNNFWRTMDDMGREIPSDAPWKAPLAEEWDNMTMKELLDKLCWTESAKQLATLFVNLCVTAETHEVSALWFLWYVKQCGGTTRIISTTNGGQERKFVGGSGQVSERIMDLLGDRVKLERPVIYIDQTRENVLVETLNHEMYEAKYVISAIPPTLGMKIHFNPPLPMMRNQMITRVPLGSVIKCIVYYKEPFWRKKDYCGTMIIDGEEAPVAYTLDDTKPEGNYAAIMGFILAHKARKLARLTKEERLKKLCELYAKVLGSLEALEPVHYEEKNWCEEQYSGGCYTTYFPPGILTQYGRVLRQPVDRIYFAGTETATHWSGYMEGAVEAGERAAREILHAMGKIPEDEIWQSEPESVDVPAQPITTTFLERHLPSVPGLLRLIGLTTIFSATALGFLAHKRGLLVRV

[12] = target: T4, Amine oxidase [flavin-containing] B; test: Inhibition of recombinant human MAOB using kynuramine as substrate preincubated for 30 mins followed by substrate addition and measured after 30 mins by fluorescence assay
[13] = target: Acetylcholinesterase (Electrophorus electricus) (UniProt O42275); test: Inhibition of Electrophorus electricus AChE at 10 uM using acetylthiocholine iodide as substrate incubated for 15 mins by Ellman's method relative to control
Mus musculus [14] = test: Reversal of scopolamine-induced memory impairment in ig dosed Kunming mouse assessed as increase in ACh level in cerebral cortex administered once daily for 7 days followed by scopolamine challenge 30 mins prior to training trail on day 6 measured on day 7; format: functional, organism-based; details: dose 0.19-4.75 mg/kg, time 7.0 day
Mus musculus [15] = test: Memory improvement effect in ig dosed Kunming mouse model of scopolamine-induced memory impairment assessed as reduction in number of errors administered once daily for 7 days followed by scopolamine challenge 30 mins prior to training on day 6 measured on day 7 by passive avoidance test; format: functional, organism-based; details: dose 0.19-4.75 mg/kg, time 7.0 day
[16] = Cytotoxicity against rat PC-12 cells assessed as cell viability at 100 uM measured after 2 hrs by MTT assay relative to control; format: cell-based; details: read-out: Activity
Acetylcholinesterase [17] = target: T3, Acetylcholinesterase; test: Competitive inhibition of Electrophorus electricus AChE using varying levels of acetylthiocholine iodide as substrate preincubated for 15 mins followed by substrate addition and measured for 15 mins by Ellman's method based Lineweaver-Burk plot analysis
[18] = Metal chelating activity assessed as compound-Al3+ complex formation by measuring induction of blue shift at 37.5 uM measured after 2 hrs by UV-visible spectrometric method
[19] = Metal chelating activity assessed as compound-Fe2+ complex formation by measuring induction of red shift at 37.5 uM measured after 2 hrs by UV-visible spectrometric method
PC-12 [20] = test: Neuroprotective activity against H2O2-induced cytotoxicity in rat PC12 cells assessed as increase in cell viability preincubated for 2 hrs followed by H2O2 addition and measured after 24 hrs by MTT assay; format: functional, cell-based; details: dose 1-50 µM, time 26.0 hrs
PC-12 [21] = test: Neuroprotective activity against H2O2-induced cytotoxicity in rat PC12 cells assessed as cell viability at 50 uM preincubated for 2 hrs followed by H2O2 addition and measured after 24 hrs by MTT assay (reference value: 53.1%); format: cell-based; details: PC-12, 24 h, time 26 hrs, read-out: Activity
[22] = Metal chelating activity assessed as compound-Zn2+ complex formation by measuring induction of red shift at 37.5 uM measured after 2 hrs by UV-visible spectrometric method
[23] = target: Amyloid-beta precursor protein (Homo sapiens) (UniProt P05067); test: Disaggregation of self-induced amyloid beta (1 to 42) (unknown origin) preformed fibrils at 25 uM measured after 24 hrs by thioflavin-T fluorescence assay relative to control
[24] = Metal chelating activity assessed as mole fraction required to show 1:1 stoichiometry for compound-Cu2+ complex formation measured after 30 mins
Mus musculus [25] = test: Memory improvement effect in ig dosed Kunming mouse model of scopolamine-induced memory impairment assessed as increase in latency time administered once daily for 7 days followed by scopolamine challenge 30 mins prior to training on day 6 measured on day 7 by passive avoidance test; format: functional, organism-based; details: dose 0.19-4.75 mg/kg, time 7.0 day
[26] = Inhibition of Cu2+-induced amyloid beta (1 to 42 residues) aggregation at 25 uM after 24 hrs by thioflavin T-based fluorescence assay relative to control
[27] = Metal chelating activity assessed as compound-Cu2+ complex formation by measuring induction of red shift at 37.5 uM measured after 2 hrs by UV-visible spectrometric method
PC-12 [28] = test: Cytotoxicity against rat PC-12 cells assessed as effect on cell viability up to 50 uM measured after 2 hrs by MTT assay; format: cell-based; details: pc-12, 2 h
[29] = Permeability of the compound in pH 7.4 PBS/EtOH at 100 ug/ml after 18 hrs by PAMPA-BBB assay; format: ADME; details: dose 100 µg/ml, read-out: permeability
PC-12 [30] = test: Neuroprotective activity against H2O2-induced cytotoxicity in rat PC12 cells assessed as increase in cell viability at 100 uM preincubated for 2 hrs followed by H2O2 addition and measured after 24 hrs by MTT assay; format: functional, cell-based; details: time 26.0 hrs
Acetylcholinesterase [31] = target: T2, Acetylcholinesterase; test: Inhibition of human AChE at 10 uM using acetylthiocholine iodide as substrate incubated for 15 mins by Ellman's method relative to control
PC-12 [32] = test: Neuroprotective activity against H2O2-induced cytotoxicity in rat PC12 cells assessed as increase in cell viability at 10 uM preincubated for 2 hrs followed by H2O2 addition and measured after 24 hrs by MTT assay; format: functional, cell-based; details: time 26.0 hrs

T2 sequence (P22303 whole entry): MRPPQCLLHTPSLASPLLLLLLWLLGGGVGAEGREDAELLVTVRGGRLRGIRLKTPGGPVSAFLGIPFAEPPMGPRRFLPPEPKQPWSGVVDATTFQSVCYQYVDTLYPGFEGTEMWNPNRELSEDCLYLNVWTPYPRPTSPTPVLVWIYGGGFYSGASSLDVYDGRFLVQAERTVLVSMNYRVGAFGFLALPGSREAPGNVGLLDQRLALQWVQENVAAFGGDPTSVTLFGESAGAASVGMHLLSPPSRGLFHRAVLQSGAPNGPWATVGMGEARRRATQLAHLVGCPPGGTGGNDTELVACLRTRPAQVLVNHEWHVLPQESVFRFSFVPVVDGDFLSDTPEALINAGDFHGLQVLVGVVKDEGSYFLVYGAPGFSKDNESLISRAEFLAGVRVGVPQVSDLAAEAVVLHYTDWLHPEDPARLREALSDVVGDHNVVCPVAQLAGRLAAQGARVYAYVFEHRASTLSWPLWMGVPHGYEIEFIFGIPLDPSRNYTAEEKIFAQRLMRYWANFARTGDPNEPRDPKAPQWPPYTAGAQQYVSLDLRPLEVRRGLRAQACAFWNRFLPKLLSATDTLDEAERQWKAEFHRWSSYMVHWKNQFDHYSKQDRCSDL
T3 sequence (O42275 whole entry): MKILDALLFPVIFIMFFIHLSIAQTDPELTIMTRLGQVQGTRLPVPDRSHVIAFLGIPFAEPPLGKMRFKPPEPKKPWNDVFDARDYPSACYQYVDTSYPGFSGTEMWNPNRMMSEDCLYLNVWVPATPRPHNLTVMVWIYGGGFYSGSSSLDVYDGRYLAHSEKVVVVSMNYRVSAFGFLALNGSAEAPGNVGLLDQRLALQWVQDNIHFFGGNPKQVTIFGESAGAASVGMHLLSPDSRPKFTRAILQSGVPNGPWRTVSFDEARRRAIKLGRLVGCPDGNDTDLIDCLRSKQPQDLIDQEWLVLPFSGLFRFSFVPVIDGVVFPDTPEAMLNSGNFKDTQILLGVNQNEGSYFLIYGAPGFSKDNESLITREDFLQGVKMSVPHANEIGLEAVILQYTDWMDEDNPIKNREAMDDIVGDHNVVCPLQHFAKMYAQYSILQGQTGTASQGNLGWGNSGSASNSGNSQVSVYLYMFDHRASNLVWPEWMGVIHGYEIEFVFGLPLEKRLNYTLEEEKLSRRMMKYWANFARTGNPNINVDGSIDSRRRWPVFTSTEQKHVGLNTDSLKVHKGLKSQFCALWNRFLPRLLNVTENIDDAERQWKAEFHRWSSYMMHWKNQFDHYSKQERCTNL
Amyloid-beta precursor protein (Homo sapiens), sequence (P05067 whole entry): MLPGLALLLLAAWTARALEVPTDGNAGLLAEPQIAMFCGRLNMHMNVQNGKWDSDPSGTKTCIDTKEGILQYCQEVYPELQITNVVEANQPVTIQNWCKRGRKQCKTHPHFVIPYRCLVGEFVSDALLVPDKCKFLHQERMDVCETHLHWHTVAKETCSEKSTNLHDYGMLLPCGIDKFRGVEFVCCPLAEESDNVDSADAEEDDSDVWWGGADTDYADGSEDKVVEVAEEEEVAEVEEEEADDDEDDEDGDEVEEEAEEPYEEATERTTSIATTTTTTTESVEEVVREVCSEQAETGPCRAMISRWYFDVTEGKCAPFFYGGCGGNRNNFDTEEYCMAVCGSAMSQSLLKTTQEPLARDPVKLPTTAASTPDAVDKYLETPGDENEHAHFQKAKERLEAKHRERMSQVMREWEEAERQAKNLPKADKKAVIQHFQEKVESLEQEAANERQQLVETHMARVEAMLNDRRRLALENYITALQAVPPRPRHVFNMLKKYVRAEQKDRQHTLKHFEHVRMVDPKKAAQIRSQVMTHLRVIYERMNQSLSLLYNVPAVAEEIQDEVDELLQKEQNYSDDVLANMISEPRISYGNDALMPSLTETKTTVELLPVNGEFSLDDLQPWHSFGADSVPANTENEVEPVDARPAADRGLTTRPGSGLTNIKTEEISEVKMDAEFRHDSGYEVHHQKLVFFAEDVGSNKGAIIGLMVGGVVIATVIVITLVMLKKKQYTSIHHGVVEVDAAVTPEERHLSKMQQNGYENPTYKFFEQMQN
butyrylcholinesterase (BuChE), sequence (Q9JKC1 whole entry): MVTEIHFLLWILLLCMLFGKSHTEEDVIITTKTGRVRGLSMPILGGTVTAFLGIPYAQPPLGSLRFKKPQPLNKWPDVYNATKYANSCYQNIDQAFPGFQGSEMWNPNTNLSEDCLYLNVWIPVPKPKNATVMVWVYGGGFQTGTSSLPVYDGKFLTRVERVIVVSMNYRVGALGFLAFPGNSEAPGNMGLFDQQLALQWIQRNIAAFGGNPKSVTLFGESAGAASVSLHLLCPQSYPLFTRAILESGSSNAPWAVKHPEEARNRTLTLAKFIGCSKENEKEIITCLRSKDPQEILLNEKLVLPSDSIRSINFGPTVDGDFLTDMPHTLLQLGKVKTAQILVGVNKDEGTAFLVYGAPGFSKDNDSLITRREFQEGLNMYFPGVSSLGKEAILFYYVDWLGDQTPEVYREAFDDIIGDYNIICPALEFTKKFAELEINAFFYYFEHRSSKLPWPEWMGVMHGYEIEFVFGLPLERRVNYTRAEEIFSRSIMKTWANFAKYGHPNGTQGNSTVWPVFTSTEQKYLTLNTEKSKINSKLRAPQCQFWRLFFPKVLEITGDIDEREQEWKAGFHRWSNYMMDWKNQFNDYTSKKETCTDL
Acetylcholinesterase (Electrophorus electricus), sequence (O42275 24-633 limits assumed): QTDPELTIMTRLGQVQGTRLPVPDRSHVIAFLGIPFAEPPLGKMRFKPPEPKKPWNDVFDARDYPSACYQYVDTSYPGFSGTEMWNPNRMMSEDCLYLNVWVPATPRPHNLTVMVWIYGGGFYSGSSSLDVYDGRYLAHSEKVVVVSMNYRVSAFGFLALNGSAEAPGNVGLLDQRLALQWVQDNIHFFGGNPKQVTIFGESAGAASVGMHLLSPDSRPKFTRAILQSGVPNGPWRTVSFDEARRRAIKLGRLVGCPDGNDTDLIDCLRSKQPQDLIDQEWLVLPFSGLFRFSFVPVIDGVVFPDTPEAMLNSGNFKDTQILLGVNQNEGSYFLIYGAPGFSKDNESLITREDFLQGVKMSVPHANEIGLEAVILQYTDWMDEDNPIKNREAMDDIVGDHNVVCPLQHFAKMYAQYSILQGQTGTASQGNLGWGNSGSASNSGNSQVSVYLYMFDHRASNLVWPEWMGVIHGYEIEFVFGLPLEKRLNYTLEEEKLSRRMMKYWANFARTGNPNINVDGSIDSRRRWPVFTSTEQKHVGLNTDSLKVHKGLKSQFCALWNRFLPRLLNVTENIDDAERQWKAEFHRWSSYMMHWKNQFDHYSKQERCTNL

O=C1CCc2cc(OCCCCc3nnnn3C3CCCCC3)ccc2N1 [CILOSTAZOL] gave a pIC50 (Plasma [1]) of 4.19.
For COc1cc2c(cc1OC)C(=O)C(CC1CCN(Cc3ccccc3)CC1)C2 (stereo not given), the Activity (Mus musculus [2]) was “Active”, the Activity (Mus musculus [3]) was “Active” and the Activity (Mus musculus [4]) was “Active”.
CCN(CC)c1cc(/C=C2/OC(=O)c3cc(OC)c(OC)cc32)ccc1O gave an inhibition [5] of 33.6%, an inhibition at […], 10 µM [6] of 25.1% and an Activity [7] of 2.62 equiv. It also gave an inhibition at 0.5 h, 10 µM (MAO-A) of under 5%, an inhibition at 33 µM (Plasma [8]) of 53.8% and a pIC50 (Acetylcholinesterase [9]) of 8.89. It also gave a pIC50 (Acetylcholinesterase [10]) of 9.51 and an inhibition at 10 µM [11] of 24.9%.
With COc1cc2c(cc1OC)/C(=C/c1ccc(N3CCN(C)CC3)c(O)c1)OC2=O the pIC50 [12] was 5.81, the inhibition at […], 10 µM [6] was under 5% and the Activity [7] was 1.36 equiv. It also gave an inhibition at 0.5 h, 10 µM (MAO-A) of 16.5% and an inhibition [13] of 42.4%.
With COc1cc2c(cc1OC)/C(=C/c1ccc(O)c(N3CCCCC3)c1)OC2=O the Activity (Mus musculus [14]) was “Dose-dependent effect”, the Activity (Mus musculus [15]) was “Dose-dependent effect” and the viability at 2 h, 100 µM [16] was 81.2%. The pKi (Acetylcholinesterase [17]) was 10.09, the pIC50 [12] was 5.23 and the Activity [18] was “Active”. The inhibition [5] was 34.2%, the Activity [19] was “Active” and the inhibition at […], 10 µM [6] was 22.4%. The Activity [7] was 2.05 equiv, the inhibition at 0.5 h, 10 µM (MAO-A) was under 5% and the Activity (PC-12 [20]) was “Dose-dependent effect”. For the same molecule, the viability at 50 µM (PC-12 [21]) was 79%, the Activity [22] was “Active” and the Activity [23] was 11.8%. For the same molecule, the Activity (mole fraction) [24] was 0.88, the Activity (Mus musculus [25]) was “Dose-dependent effect” and the inhibition [26] was 19.9%. It also gave an inhibition at 33 µM (Plasma [8]) of 32.5%, a pIC50 (Acetylcholinesterase [9]) of 9.21 and a pIC50 (Acetylcholinesterase [10]) of 10.04. For the same molecule, the Activity [27] was “Active”, the Activity (PC-12 [28]) was “Non-Toxic” and the Papp at 18 h, 100 ug/ml [29] was 12.3 ×10⁻⁶ cm/s.
Molecule COc1cc(/C=C/C(=O)CC(=O)/C=C/c2ccc(O)c(OC)c2)ccc1O has an Activity [23] of 24.3% and an inhibition [26] of 58%.
For Cc1c(C)c2c(c(C)c1O)CCC(C)(C(=O)O)O2 (stereo not given), the Activity (PC-12 [30]) was “Active”.
COc1cc2c(cc1OC)/C(=C\c1ccc(O)c(N3CCCCC3)c1)OC2=O showed an inhibition [5] of 15.8%, an inhibition at […], 10 µM [6] of 27.6% and an Activity [7] of 1.95 equiv. It also gave an inhibition at 0.5 h, 10 µM (MAO-A) of 5.67%, an inhibition at 33 µM (Plasma [8]) of 18.4% and a pIC50 (Acetylcholinesterase [9]) of 9.47. The pIC50 (Acetylcholinesterase [10]) was 10.15, the inhibition at 10 µM [11] was 34.8% and the Papp at 18 h, 100 ug/ml [29] was 11.2 ×10⁻⁶ cm/s.
In the case of CCCCC1OC(=O)c2ccccc21 (racemic) [RAC-3-N-BUTYLPHTHALIDE], the inhibition at […], 10 µM [6] was under 5%, the Activity [7] was 0.2 equiv and the inhibition (Acetylcholinesterase [31]) was under 5%. It also gave an Activity [23] of under 5%, an inhibition [26] of under 5% and an inhibition at 33 µM (Plasma [8]) of 9.5%. The Activity (PC-12 [32]) was “Active”.
CCN(CC)c1cc(/C=C2\OC(=O)c3cc(OC)c(OC)cc32)ccc1O gave an inhibition [5] of 25.9%, an inhibition at […], 10 µM [6] of 15.7% and an Activity [7] of 2.14 equiv. The inhibition at 0.5 h, 10 µM (MAO-A) was under 5%, the Activity [23] was 19.9% and the inhibition [26] was under 5%. The inhibition at 33 µM (Plasma [8]) was 45.1%, the pIC50 (Acetylcholinesterase [9]) was 8.81 and the pIC50 (Acetylcholinesterase [10]) was 9.42. It also gave an inhibition at 10 µM [11] of 46.2%.
